# In paper PMC10326435, “Antiprotozoal activity of natural products from Nigerien plants used in folk medicine” (Frontiers in Pharmacology, 2023):
# Values joined by “and” are separate entries in the source; they are usually repeats but may differ in a detail not shown here. Equal values may be shown once. Read-outs that look alike come from different tables or passages of the source.
# Key:
# [1] = tested on: P. falciparum (NF54, intraerythrocytic); assay: in vitro activity on P. falciparum, serial dilution assay; type: cell-based, Plasmodium falciparum; settings: for IC50: Plasmodium falciparum, read-out: IC50 P. falciparum; for Selectivity index (SI) P. falciparum: SI = IC50 cytotoxicity (L6)/IC50 in P. falciparum
# Experimental: (§1) The in vitro activity was assessed on T. b. rhodesiense (STIB900, trypomastigotes), T. cruzi (Tulahuen C2C4, intracellular amastigotes), L. donovani (MHOM-ET-67/L82, axenically grown amastigotes), P. falciparum (NF54, intraerythrocytic), and L6 cells (ATCC, CRL-1458™, rat skeletal myoblasts) as previously described ([Bernal et al., 2020]). The activities were determined in serial dilution assays with 72 h compound exposure, respectively 96 h for intracellular T. cruzi. Results are expressed in µg/mL for extracts and in µM for pure compounds. The IC50 values were determined for the compounds only when they were <50 µM.
# [2] = tested on: L. donovani (MHOM-ET-67/L82, axenically grown amastigotes); assay: in vitro activity on L. donovani, serial dilution assay; type: cell-based, Leishmania donovani; settings: for IC50: Leishmania donovani; for Selectivity index (SI) L. donovani: SI = IC50 cytotoxicity (L6)/IC50 in L. donovani
# Experimental: as §1
# [3] = tested on: T. b. rhodesiense (STIB900, trypomastigotes); assay: in vitro activity on T. b. rhodesiense, serial dilution assay; type: cell-based, Trypanosoma brucei rhodesiense; settings: for IC50: Trypanosoma brucei; for Selectivity index (SI) T. b. rhodesiense: SI = IC50 cytotoxicity (L6)/IC50 in T. b. rhodesiense
# Experimental: as §1
# [4] = tested on: T. cruzi (Tulahuen C2C4, intracellular amastigotes); assay: in vitro activity on T. cruzi, serial dilution assay; type: cell-based, Trypanosoma cruzi; settings: for IC50: Trypanosoma cruzi, TULAHUEN; for Selectivity index (SI) T. cruzi: SI = IC50 cytotoxicity (L6)/IC50 in T. cruzi
# Experimental: as §1
# cytotoxicity in L6 cells = type: cell-based, rat
# Experimental: as §1
# [5] = 72 h, read-out: IC50 L. donovani
# [6] = 72 h exposure, means of two independent assays ± deviation from the mean, read-out: IC50 T. b. rhodesiense
# [7] = rat skeletal myoblast (L6 cells), 72 h exposure, means of two independent assays ± deviation from the mean, read-out: IC50 Cytotoxicity
# [8] = NF54, 72 h, 72 h exposure, means of two independent assays ± deviation from the mean
# [9] = 72 h, axenic amastigotes, 72 h exposure, means of two independent assays ± deviation from the mean, read-out: IC50 L. donovani
# [10] = 72 h, 72 h exposure, means of two independent assays ± deviation from the mean, read-out: IC50 T. b. rhodesiense
# [11] = 96 h, 96 h exposure, means of two independent assays ± deviation from the mean, read-out: IC50 T. cruzi
# [12] = rat, L6 cells (rat skeletal myoblasts, ATCC CRL-1458), rat skeletal myoblast (L6 cells), 72 h exposure, means of two independent assays ± deviation from the mean, read-out: IC50 Cytotoxicity
# [13] = inactive, read-out: IC50 L. donovani (inactive)
# [14] = inactive, read-out: IC50 T. b. rhodesiense (inactive)
# [15] = inactive, read-out: IC50 T. cruzi (inactive)
SMILES,Selectivity index (SI) P. falciparum [1],Selectivity index (SI) L. donovani [2],"IC50 [1, 8]","IC50 [2, 9]",Selectivity index (SI) T. b. rhodesiense [3],"IC50 [3, 10]",Selectivity index (SI) T. cruzi [4],"IC50 [4, 11]",IC50 at 72 h (cytotoxicity in L6 cells; [12]),further results
"C=C(C)[C@@H]1CC[C@]2(C(=O)O)CC[C@]3(C(=O)O)[C@H](CC[C@@H]4[C@@]5(C)C=CC(C)(C)[C@@H]5CC[C@]43C)[C@@H]12 [Compound 17, ceanothenic acid]",> 8.0,> 40,–,–,–,–,–,–,–,"IC50 ([1]; NF54, 72 h): 13.9 ± 4 µM; IC50 [2, 5]: 2.6 ± 0.2 µM; IC50 [3, 6]: > 50 µM; IC50 ([4]; 96 h, read-out: IC50 T. cruzi): > 50 µM; IC50 at 72 h (cytotoxicity in L6 cells; [7]): > 50 µM"
"C=C(C)[C@@H]1CC[C@]2(C(=O)O)CC[C@]3(C)[C@H](CC[C@@H]4[C@@]5(C)C[C@@H](O)[C@H](OC(=O)/C=C/c6ccc(O)cc6)C(C)(C)[C@@H]5CC[C@]43C)[C@@H]12 [Compound 18, 3-O-trans-p-coumaroylalphitolic acid]",79.0,5.3,0.2 ± 0.04 µM,3 ± 0.2 µM,0.6,25.9 ± 2.6 µM,0.8,19.5 ± 0.6 µM,–,"IC50 at 72 h (cytotoxicity in L6 cells; rat, IC50 Cytotoxicity): 15.8 ± 6.4 µM"
CC(C)=CCC1=C(Cl)C(=O)c2c(O)ccc(O)c2C1=O [Compound 21],0.9,2.6,9.2 ± 2.1 µM,3 ± 0.4 µM,15.8,0.5 ± 0.3 µM,0.4,21.5 ± 0.2 µM,7.9 ± 1.3 µM,–
C=C(C)[C@H](O)CC1=C(O)C(=O)c2c(O)ccc(O)c2C1=O [Compound 22],–,3.8,> 50 µM,7.9 ± 0.9 µM,0.8,36 ± 9.4 µM,–,> 50 µM,30.4 ± 10.6 µM,–
COC1=CC(=O)C=C(OC)C1=O [Compound 23],–,–,–,–,–,–,–,–,–,"IC50 ([1]; NF54, 72 h): 36.9 ± 15.4 µM; IC50 [2, 5]: 15.1 ± 1 µM; IC50 [3, 6]: 9.3 ± 3.1 µM; IC50 ([4]; 96 h, read-out: IC50 T. cruzi): > 50 µM; IC50 at 72 h (cytotoxicity in L6 cells; [7]): > 50 µM"
CC(C)=CC[C@@]12O[C@@H]1C(O)c1c(O)ccc(O)c1C2=O (stereo partly drawn) [Compound 25],1.4,1.5,14 ± 1.9 µM,12.7 ± 5.3 µM,7.6,2.5 ± 0.1 µM,–,> 50 µM,19 ± 2.3 µM,–
CC(C)=CC[C@@]12O[C@@H]1C(=O)c1c(O)ccc(O[C@@H]3O[C@H](CO)[C@@H](O)[C@H](O)[C@H]3O)c1C2=O [Compound 26],1.4,3.5,9 ± 5.4 µM,3.5 ± 0.5 µM,1.2,9.9 ± 4.5 µM,0.3,39.2 ± 5 µM,12.2 ± 1.8 µM,–
CC(C)=CCCc1ccc2c(c1)C(=O)c1ccccc1C2=O [Compound 27],–,–,–,–,–,–,–,–,–,"IC50 ([1]; NF54, abstract and b45 text): > 50 µM; IC50 [2, 13]: > 50 µM; IC50 [3, 14]: > 50 µM; IC50 [4, 15]: > 50 µM"
CC(C)=CCCc1ccc2c(c1O)C(=O)c1ccccc1C2=O [Compound 28],–,–,–,–,–,–,–,–,–,"IC50 ([1]; NF54, abstract and b45 text): > 50 µM; IC50 [2, 13]: > 50 µM; IC50 [3, 14]: > 50 µM; IC50 [4, 15]: > 50 µM"
COc1cc([C@@H]2OC[C@@H]3[C@H]2CO[C@H]3c2cc(OC)c(O)c(OC)c2)cc(OC)c1O [Compound 30],0.6,1.0,22.6 ± 2 µM,13.4 ± 2.3 µM,0.6,20.2 ± 1.8 µM,0.4,29.2 ± 11.4 µM,–,"IC50 at 72 h (cytotoxicity in L6 cells; rat, IC50 Cytotoxicity): 13 ± 1.7 µM"
"Nc1nc(N)nc(Nc2ccc([As]3SCC(CO)S3)cc2)n1 (stereo not drawn) [Melarsoprol, reference compound]",–,–,–,–,–,–,–,–,–,"IC50 ([3]; 72 h, read-out: IC50 T. b. rhodesiense): 0.005 µg/mL and 16 nM"
"CCCCCCCCCCCCCCCCOP(=O)([O-])OCC[N+](C)(C)C [Miltefosine, reference compound]",–,–,–,0.52 ± 0.07 µM,–,–,–,–,–,"IC50 ([2]; 72 h, Table 2, 72 h exposure, means of two (C. sieberiana three) independent experiments, read-out: IC50 L. donovani): 0.282 µg/mL"
"COc1cc([C@@H]2c3cc4c(cc3[C@H](O)[C@H]3COC(=O)[C@H]23)OCO4)cc(OC)c1OC [Podophyllotoxin, reference compound]",–,–,–,–,–,–,–,–,–,"IC50 at 72 h (cytotoxicity in L6 cells; Table 2, rat skeletal myoblast (L6 cells), 72 h exposure, read-out: IC50 Cytotoxicity): 0.008 µg/mL"
